These results are taken from PMC2857651, “A Single Amino Acid Change Converts the Sugar Sensor SGLT3 into a Sugar Transporter” (PLoS ONE, 2010).

For data set [1], the target named is T1, hSGLT3 (Homo sapiens, UniProt Q9NY91).
T1 construct: gene SLC5A4; full-length cDNA, cRNA expressed in Xenopus laevis oocytes (untagged in the oocyte tests)
T1 sequence (Q9NY91 1-659): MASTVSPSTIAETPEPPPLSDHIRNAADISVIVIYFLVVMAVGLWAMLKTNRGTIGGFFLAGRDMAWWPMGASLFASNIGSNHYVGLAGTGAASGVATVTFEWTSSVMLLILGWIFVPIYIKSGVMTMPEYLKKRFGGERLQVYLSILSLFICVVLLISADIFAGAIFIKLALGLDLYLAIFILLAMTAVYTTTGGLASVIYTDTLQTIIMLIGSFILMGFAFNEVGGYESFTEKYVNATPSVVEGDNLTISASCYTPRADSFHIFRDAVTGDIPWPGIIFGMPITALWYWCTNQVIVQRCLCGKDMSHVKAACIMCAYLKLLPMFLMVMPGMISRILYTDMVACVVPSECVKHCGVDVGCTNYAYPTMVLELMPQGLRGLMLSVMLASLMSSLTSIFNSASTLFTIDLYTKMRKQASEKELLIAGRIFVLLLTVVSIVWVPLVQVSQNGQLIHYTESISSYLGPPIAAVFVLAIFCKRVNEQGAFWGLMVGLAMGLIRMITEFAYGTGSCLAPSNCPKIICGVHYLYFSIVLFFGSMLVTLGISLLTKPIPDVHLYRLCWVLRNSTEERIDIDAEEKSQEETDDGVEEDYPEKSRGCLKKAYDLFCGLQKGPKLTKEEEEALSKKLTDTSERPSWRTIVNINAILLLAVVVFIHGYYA
Briefly: inhibition of glucose-induced current, two-electrode voltage clamp in Xenopus oocytes. The class given is cell-based. The note with it: pH 5, glucose present; phlorizin also blocks about two-thirds of the H+-induced current. (In general: Two-electrode voltage clamp is typically applied to oocytes expressing channels or transporters.)

Data set [2] addresses T2, hSGLT3 (Homo sapiens, UniProt Q9NY91, E457Q).
T2 construct: gene SLC5A4; full-length cDNA, cRNA expressed in Xenopus laevis oocytes (untagged in the oocyte tests)
T2 sequence (Q9NY91 1-659 E457Q): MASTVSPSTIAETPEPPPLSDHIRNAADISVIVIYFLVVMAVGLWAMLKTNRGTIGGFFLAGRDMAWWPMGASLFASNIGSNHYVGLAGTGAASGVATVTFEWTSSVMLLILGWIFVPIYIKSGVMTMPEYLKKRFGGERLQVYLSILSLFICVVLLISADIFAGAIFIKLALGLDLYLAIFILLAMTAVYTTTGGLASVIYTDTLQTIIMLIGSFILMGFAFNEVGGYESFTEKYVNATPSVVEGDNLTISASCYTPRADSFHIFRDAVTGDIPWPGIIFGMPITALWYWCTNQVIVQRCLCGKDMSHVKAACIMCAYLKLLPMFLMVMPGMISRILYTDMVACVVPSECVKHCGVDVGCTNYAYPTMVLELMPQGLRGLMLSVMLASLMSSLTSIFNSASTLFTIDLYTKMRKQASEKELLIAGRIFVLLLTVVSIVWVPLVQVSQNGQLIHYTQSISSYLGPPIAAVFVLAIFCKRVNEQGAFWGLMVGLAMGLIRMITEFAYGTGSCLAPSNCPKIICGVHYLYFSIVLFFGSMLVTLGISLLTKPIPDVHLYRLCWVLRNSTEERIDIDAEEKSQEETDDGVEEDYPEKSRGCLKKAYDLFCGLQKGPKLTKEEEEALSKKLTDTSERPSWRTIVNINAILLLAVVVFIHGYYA
The data set can be described thus: inhibition of αM-glc-induced depolarization, two-electrode recording in Xenopus oocytes. The class given is cell-based. The note with it: read-out: E457Q-hSGLT3 / K0.5. An excerpt:
inhibition of αM-glc-induced depolarization, two-electrode recording in Xenopus oocytes on hSGLT3

Data set [3] deals with T1, hSGLT3. Briefly: sugar-induced current, two-electrode voltage clamp in Xenopus oocytes. The class given is cell-based. The note with it: 150 mM αM-glc, Na+ buffer; bound but not transported.
Substrate in data set [4]: CO[C@H]1O[C@H](CO)[C@@H](O)[C@H](O)[C@H]1O
Briefly: sugar-induced depolarization, two-electrode recording in Xenopus oocytes. The class given is cell-based, Homo sapiens. The settings on record: 100 mM Na+, pH 7.4, room temperature, n = 3. From the text:
sugar-induced depolarization, two-electrode recording in Xenopus oocytes on hSGLT3

For `O=C(CCc1ccc(O)cc1)c1c(O)cc(O)cc1O[C@@H]1O[C@H](CO)[C@@H](O)[C@H](O)[C@H]1O` [phlorizin], the “% inhibition at 100 μM” value on hSGLT3 [1] is 2/3. Moreover, on hSGLT3 [2], the Ki was 1600 ± 90 nM.

On to `CO[C@H]1O[C@H](CO)[C@@H](O)[C@H](O)[C@H]1O` [αM-glc], for which the “sugar-induced current, two-electrode voltage clamp in Xenopus oocytes” value at hSGLT3 [3] was “sugar-induced current (difference between black and open circles in 3D and 3G)”.

B1: hSGLT3 (Homo sapiens; E457Q) (protein)
chain: MASTVSPSTIAETPEPPPLSDHIRNAADISVIVIYFLVVMAVGLWAMLKTNRGTIGGFFLAGRDMAWWPMGASLFASNIGSNHYVGLAGTGAASGVATVTFEWTSSVMLLILGWIFVPIYIKSGVMTMPEYLKKRFGGERLQVYLSILSLFICVVLLISADIFAGAIFIKLALGLDLYLAIFILLAMTAVYTTTGGLASVIYTDTLQTIIMLIGSFILMGFAFNEVGGYESFTEKYVNATPSVVEGDNLTISASCYTPRADSFHIFRDAVTGDIPWPGIIFGMPITALWYWCTNQVIVQRCLCGKDMSHVKAACIMCAYLKLLPMFLMVMPGMISRILYTDMVACVVPSECVKHCGVDVGCTNYAYPTMVLELMPQGLRGLMLSVMLASLMSSLTSIFNSASTLFTIDLYTKMRKQASEKELLIAGRIFVLLLTVVSIVWVPLVQVSQNGQLIHYTQSISSYLGPPIAAVFVLAIFCKRVNEQGAFWGLMVGLAMGLIRMITEFAYGTGSCLAPSNCPKIICGVHYLYFSIVLFFGSMLVTLGISLLTKPIPDVHLYRLCWVLRNSTEERIDIDAEEKSQEETDDGVEEDYPEKSRGCLKKAYDLFCGLQKGPKLTKEEEEALSKKLTDTSERPSWRTIVNINAILLLAVVVFIHGYYA
notes: full-length cDNA, cRNA expressed in Xenopus laevis oocytes (untagged in the oocyte tests)
In the case of B1, the K0.5 in data set [4] turned out to be 0.5 ± 0.03 mM.
